In patent US20070190188A1, “Controlling Toxicity of Aminoquinoline Compounds” (The University of Mississippi, priority 2005, published 2007):

Key:
Mouse Liver Microsomes = assay: In vitro formation of methemoglobinemic metabolites with mouse liver microsomes and human erythrocytes; format: cell-based; conditions: for formation of methemoglobenemic metabolites, Control / formation of methemoglobenemic metabolites, Azithromycin / formation of methemoglobenemic metabolites, Erythromycin / formation of methemoglobenemic metabolites, Microsomes: Mouse Liver Microsomes; for formation of methemoglobenemic metabolites, Control: macrolide alone, no 8-aminoquinoline; for formation of methemoglobenemic metabolites, Azithromycin: 8-aminoquinoline with Azithromycin; for formation of methemoglobenemic metabolites, Erythromycin: 8-aminoquinoline with Erythromycin; for formation of methemoglobenemic metabolites, Microsomes: no macrolide; for % methemoglobin formation, Mouse Liver Microsomes: drug 100 μM, microsomes equivalent to 25 pmoles cytochrome P450, Mean ± S.D. of four
Description: (§1) In one aspect of the present invention, an in vitro assay is developed for evaluation of biotransformation reactions leading to generation of methemoglobinemic metabolites of 8-aminoquinolines. This method uses simultaneous incubation of a test compound with the hepatic microsomes or Baculosomes® (microsomes prepared from insect cells infected with recombinant baculovirus containing a cDNA insert for a specific human P450 isozyme and NADPH-P450 reductase) and human erythrocytes followed by determination of methemoglobin formation. This allows the unstable metabolites generated in situ to react with the human erythrocytes.

[1] = tested on: pooled human liver microsomes; assay: In vitro formation of methemoglobinemic metabolites with pooled human liver microsomes and human erythrocytes; format: cell-based; conditions: for formation of methemoglobenemic metabolites, Control: macrolide alone, no 8-aminoquinoline
Description: as §1

CYP 3A4 = molecular target: T1, CYP 3A4 (Homo sapiens, UniProt P08684); assay: Methemoglobinemic metabolite formation with Baculosomes, CYP 3A4; format: cell-based
T1 construct: purchased; host or cells: insect cells infected with recombinant baculovirus
Description: as §1

CPY 2B6 = molecular target: T2, CPY 2B6 (Homo sapiens, UniProt P20813); assay: Methemoglobinemic metabolite formation with Baculosomes, CYP 2B6; format: cell-based; conditions: mean ± S.D. of four
T2 construct: purchased; host or cells: insect cells infected with recombinant baculovirus
T2 sequence (P20813 1-491): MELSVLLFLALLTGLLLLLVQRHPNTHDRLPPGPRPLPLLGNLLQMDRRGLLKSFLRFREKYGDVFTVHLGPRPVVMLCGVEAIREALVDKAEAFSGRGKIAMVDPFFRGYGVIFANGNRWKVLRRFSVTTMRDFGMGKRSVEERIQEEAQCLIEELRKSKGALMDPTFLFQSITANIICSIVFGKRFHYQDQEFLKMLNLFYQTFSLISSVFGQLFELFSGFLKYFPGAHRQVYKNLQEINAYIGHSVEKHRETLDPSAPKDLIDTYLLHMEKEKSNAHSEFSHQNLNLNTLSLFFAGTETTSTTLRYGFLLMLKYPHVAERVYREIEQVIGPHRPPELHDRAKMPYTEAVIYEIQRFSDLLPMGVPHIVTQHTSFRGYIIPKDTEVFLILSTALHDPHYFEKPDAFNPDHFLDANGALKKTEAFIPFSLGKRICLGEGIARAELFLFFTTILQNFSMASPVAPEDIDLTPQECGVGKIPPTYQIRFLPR
Description: (§2) This method uses simultaneous incubation of a test compound with the hepatic microsomes or Baculosomes® (microsomes prepared from insect cells infected with recombinant baculovirus containing a cDNA insert for a specific human P450 isozyme and NADPH-P450 reductase) and human erythrocytes followed by determination of methemoglobin formation. This allows the unstable metabolites generated in situ to react with the human erythrocytes.

CYP 2C9 = molecular target: T3, CYP 2C9 (Homo sapiens, UniProt P11712); assay: Methemoglobinemic metabolite formation with Baculosomes, CYP 2C9; format: cell-based; conditions: mean ± S.D. of four
T3 construct: purchased; host or cells: insect cells infected with recombinant baculovirus
Description: as §2

CYP 2A6 = molecular target: T4, CYP 2A6 (Homo sapiens, UniProt P11509); assay: Methemoglobinemic metabolite formation with Baculosomes, CYP 2A6; format: cell-based; conditions: mean ± S.D. of four
T4 construct: purchased; host or cells: insect cells infected with recombinant baculovirus
T4 sequence (P11509 1-494): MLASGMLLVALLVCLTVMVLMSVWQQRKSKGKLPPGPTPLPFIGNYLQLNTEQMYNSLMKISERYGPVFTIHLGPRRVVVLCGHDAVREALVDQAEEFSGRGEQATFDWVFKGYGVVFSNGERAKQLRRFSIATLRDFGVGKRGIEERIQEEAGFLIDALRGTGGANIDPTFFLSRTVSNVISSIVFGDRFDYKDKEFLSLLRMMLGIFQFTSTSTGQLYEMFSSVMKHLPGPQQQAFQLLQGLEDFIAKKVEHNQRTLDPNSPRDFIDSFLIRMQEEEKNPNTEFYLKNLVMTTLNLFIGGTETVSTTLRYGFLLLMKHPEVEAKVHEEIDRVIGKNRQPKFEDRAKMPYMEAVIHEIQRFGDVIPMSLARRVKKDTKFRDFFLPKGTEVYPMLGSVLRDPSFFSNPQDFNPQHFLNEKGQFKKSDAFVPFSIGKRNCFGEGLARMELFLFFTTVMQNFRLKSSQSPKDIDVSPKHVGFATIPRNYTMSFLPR
Description: as §2

CYP 1A2 = molecular target: T5, CYP 1A2 (Homo sapiens, UniProt P05177); assay: Methemoglobinemic metabolite formation with Baculosomes, CYP 1A2; format: cell-based; conditions: mean ± S.D. of four
T5 construct: purchased; host or cells: insect cells infected with recombinant baculovirus
T5 sequence (P05177 2-516 limits assumed): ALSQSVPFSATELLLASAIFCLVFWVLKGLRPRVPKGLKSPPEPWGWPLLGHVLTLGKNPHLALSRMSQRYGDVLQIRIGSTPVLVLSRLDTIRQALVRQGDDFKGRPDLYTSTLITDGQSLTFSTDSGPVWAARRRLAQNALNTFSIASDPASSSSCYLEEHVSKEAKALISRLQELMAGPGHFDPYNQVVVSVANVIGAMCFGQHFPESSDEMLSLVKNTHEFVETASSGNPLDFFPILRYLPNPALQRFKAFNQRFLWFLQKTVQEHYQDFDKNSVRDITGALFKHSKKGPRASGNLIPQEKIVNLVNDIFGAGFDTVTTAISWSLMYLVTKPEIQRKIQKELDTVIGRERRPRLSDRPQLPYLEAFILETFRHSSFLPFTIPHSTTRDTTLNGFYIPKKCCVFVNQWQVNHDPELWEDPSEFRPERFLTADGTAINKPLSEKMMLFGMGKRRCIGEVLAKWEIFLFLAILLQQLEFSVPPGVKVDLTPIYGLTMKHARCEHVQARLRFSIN
Description: as §2

CYP 2D6 = molecular target: T6, CYP 2D6 (Homo sapiens, UniProt P10635); assay: Methemoglobinemic metabolite formation with Baculosomes, CYP 2D6; format: cell-based; conditions: mean ± S.D. of four
T6 construct: purchased; host or cells: insect cells infected with recombinant baculovirus
Description: as §2

human erythrocytes = assay: In vitro methemoglobin formation, human erythrocytes, control without microsomes; format: cell-based; conditions: for % methemoglobin formed, Supersomes None: no Baculosomes, mean ± S.D. of four; for % methemoglobin formation, Control: no microsomes, drug 100 μM, Mean ± S.D. of four observations
Description: as §1

CYP 2C8 = molecular target: T7, CYP 2C8 (Homo sapiens, UniProt P10632); assay: Methemoglobinemic metabolite formation with Baculosomes, CYP 2C8; format: cell-based; conditions: mean ± S.D. of four
T7 construct: purchased; host or cells: insect cells infected with recombinant baculovirus
T7 sequence (P10632 1-490): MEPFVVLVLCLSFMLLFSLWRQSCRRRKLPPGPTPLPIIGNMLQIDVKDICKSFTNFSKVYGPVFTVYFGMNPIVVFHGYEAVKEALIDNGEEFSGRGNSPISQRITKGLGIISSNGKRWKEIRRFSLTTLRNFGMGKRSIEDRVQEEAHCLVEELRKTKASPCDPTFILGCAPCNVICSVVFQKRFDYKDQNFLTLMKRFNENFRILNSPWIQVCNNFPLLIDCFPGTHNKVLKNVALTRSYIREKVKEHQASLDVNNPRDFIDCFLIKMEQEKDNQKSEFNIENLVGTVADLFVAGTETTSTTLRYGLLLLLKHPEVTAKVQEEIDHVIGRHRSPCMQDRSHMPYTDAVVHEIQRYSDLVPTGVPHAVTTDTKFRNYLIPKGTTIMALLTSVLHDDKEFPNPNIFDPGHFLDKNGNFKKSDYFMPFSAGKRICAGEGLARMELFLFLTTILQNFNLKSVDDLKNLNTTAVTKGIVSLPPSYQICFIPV
Description: as §1

CYP 2C19 = molecular target: T8, CYP 2C19 (Homo sapiens, UniProt P33261); assay: Methemoglobinemic metabolite formation with Baculosomes, CYP 2C19; format: cell-based; conditions: mean ± S.D. of four
T8 construct: purchased; host or cells: insect cells infected with recombinant baculovirus
Description: as §2

CYP 2E1 = molecular target: T9, CYP 2E1 (Homo sapiens, UniProt P05181); assay: Methemoglobinemic metabolite formation with Baculosomes, CYP 2E1; format: cell-based; conditions: mean ± S.D. of four
T9 construct: purchased; host or cells: insect cells infected with recombinant baculovirus
Description: as §2

Plasmodium berghei = assay: In vivo antimalarial evaluation in Plasmodium berghei-mouse malaria model; conditions: TAO i.p. 50 mg/kg × 3 once daily alone; for (%) Parasitemia: mean in brackets
Description: One concern with this method of controlling 8-aminoquinoline toxicity is that the inhibition metabolism of the drug may impair its antiparasitic efficacy. […] Thus treatment of the individuals with NPC1161B along with an inhibitor of CYP3A4 should not compromise the therapeutic efficiency of NPC1161B.

T1 sequence (P08684 2-503 limits assumed): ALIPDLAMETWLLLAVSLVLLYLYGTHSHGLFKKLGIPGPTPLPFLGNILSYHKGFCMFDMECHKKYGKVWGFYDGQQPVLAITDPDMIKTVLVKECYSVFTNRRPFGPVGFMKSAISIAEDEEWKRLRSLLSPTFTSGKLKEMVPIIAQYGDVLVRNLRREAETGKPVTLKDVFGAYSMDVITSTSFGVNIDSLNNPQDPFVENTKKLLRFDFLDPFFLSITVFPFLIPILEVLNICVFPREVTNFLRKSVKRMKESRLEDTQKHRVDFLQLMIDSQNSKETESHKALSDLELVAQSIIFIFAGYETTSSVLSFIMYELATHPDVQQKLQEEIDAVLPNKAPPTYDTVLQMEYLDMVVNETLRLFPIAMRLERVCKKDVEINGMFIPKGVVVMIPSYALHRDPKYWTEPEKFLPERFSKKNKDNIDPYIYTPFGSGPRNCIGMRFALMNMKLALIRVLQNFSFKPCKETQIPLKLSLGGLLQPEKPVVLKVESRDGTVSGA
T3 sequence (P11712 whole entry): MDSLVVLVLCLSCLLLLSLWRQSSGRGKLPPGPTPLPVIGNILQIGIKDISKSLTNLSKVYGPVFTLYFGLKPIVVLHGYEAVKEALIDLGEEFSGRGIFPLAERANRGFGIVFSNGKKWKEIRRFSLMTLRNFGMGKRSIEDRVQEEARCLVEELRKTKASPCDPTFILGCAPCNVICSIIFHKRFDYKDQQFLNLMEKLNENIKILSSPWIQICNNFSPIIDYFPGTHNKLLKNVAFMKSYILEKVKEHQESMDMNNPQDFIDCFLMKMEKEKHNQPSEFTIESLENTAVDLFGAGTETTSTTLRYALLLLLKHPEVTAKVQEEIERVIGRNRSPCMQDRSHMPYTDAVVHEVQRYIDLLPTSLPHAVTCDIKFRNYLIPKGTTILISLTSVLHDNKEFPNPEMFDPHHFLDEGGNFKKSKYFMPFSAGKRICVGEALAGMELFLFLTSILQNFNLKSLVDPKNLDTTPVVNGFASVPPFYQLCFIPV
T8 sequence (P33261 whole entry): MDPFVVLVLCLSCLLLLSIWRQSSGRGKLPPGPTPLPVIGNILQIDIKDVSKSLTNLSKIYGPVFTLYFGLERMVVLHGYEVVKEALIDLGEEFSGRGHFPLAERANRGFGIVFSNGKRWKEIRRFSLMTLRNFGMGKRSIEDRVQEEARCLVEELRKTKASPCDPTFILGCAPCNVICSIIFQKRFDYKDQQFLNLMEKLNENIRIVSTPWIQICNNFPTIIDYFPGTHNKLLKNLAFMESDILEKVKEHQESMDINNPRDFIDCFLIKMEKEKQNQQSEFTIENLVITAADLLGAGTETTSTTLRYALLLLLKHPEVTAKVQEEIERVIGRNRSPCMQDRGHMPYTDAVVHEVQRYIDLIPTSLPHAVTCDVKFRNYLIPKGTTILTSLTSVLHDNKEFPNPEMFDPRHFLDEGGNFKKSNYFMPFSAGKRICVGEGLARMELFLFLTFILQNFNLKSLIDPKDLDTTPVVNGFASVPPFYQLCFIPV
T6 sequence (P10635 whole entry): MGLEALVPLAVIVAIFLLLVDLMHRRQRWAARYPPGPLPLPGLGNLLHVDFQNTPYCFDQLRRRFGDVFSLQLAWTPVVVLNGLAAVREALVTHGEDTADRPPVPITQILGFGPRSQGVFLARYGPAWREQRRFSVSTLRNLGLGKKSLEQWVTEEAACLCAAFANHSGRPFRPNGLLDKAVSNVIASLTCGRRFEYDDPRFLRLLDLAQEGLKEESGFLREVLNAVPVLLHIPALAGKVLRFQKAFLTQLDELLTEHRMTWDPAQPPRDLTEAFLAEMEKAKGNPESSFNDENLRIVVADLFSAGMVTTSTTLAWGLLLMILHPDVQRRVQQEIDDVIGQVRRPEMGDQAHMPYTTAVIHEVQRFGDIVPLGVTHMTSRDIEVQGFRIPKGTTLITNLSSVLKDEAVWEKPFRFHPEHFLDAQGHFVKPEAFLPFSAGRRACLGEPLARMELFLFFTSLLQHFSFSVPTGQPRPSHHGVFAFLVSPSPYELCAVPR
T9 sequence (P05181 whole entry): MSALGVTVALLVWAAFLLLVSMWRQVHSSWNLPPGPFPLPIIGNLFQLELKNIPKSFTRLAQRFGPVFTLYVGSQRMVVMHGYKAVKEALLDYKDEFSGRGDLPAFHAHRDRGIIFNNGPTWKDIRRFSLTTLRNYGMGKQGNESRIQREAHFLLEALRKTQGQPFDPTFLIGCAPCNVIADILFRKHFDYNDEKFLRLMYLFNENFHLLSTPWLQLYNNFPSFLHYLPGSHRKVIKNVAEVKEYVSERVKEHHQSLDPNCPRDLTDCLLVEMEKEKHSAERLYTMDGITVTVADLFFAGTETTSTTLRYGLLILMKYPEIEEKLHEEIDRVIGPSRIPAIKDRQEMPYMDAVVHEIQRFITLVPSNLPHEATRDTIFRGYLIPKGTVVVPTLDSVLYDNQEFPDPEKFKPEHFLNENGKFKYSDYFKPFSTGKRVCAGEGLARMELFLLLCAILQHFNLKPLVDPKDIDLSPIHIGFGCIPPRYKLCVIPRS

CC[C@H]1OC(=O)[C@H](C)[C@@H](O[C@H]2C[C@@](C)(OC)[C@@H](O)[C@H](C)O2)[C@H](C)[C@@H](O[C@@H]2O[C@H](C)C[C@H](N(C)C)[C@H]2O)[C@](C)(O)C[C@@H](C)CN(C)[C@H](C)[C@@H](O)[C@]1(C)O [Azithromycin, reference compound]
formation of methemoglobenemic metabolites, Control (Mouse Liver Microsomes): 6.598 ± 0.505 | formation of methemoglobenemic metabolites, Control ([1]; pooled human Liver Microsomes): 0

CC[C@H]1OC(=O)[C@H](C)[C@@H](O[C@H]2C[C@@](C)(OC)[C@@H](O)[C@H](C)O2)[C@H](C)[C@@H](O[C@@H]2O[C@H](C)C[C@H](N(C)C)[C@H]2O)[C@](C)(O)C[C@@H](C)C(=O)[C@H](C)[C@@H](O)[C@]1(C)O [Erythromycin, erythromycin, reference compound]
formation of methemoglobenemic metabolites, Control (Mouse Liver Microsomes): 6.230 ± 1.009 | formation of methemoglobenemic metabolites, Control ([1]; pooled human Liver Microsomes): 0

COc1cc(N[C@@H](C)CCCN)c2nccc(C)c2c1Oc1ccc(Cl)c(Cl)c1 [NPC1161A]
formation of methemoglobenemic metabolites, Azithromycin (Mouse Liver Microsomes): 10.850 ± 2.134 | formation of methemoglobenemic metabolites, Erythromycin (Mouse Liver Microsomes): 9.375 ± 0.686 | formation of methemoglobenemic metabolites, Microsomes (Mouse Liver Microsomes): 17.790 ± 1.460 | % methemoglobin formation, Mouse Liver Microsomes (Mouse Liver Microsomes): 17.790 ± 1.460% | % methemoglobin formed, Cimetidine (CYP 3A4; 3A4 Baculosomes, 8-aminoquinoline 100 μM with Cimetidine 100 μM): 11.905 ± 1.420% | % methemoglobin formed, Erythromycin (CYP 3A4; 3A4 Baculosomes, 8-aminoquinoline 100 μM with Erythromycin 100 μM): 15.288 ± 2.359% | % methemoglobin formed, Ketoconazole (CYP 3A4; 3A4 Baculosomes, 8-aminoquinoline 100 μM with Ketoconazole 100 μM): 19.010 ± 0.870% | % methemoglobin formed, Troleandomycin (CYP 3A4; 3A4 Baculosomes, 8-aminoquinoline 100 μM with Troleandomycin 100 μM): 16.743 ± 1.401% | % methemoglobin formed, inhibitor None (CYP 3A4; 3A4 Baculosomes, 8-aminoquinoline 100 μM, no inhibitor): 20.925 ± 0.502% | % methemoglobin formed, CYP 3A4 (CYP 3A4; Baculosomes, mean ± S.D. of four): 15.320 ± 0.504% | methemoglobin toxicity generated by CYP 3A4, comparison among the three 8-aminoquinolines (CYP 3A4; FIG. 5): almost similar methemoglobin toxicity | % methemoglobin formed, CPY 2B6 (CPY 2B6): 5.465 ± 0.625% | % methemoglobin formed, CYP 2C9 (CYP 2C9): 0.070 ± 0.130% | % methemoglobin formed, CYP 2A6 (CYP 2A6): 2.775 ± 0.175% | % methemoglobin formed, CYP 1A2 (CYP 1A2): 2.060 ± 0.185% | % methemoglobin formed, CYP 2D6 (CYP 2D6): 17.200 ± 1.088% | % methemoglobin formed, Supersomes None (human erythrocytes): 2.138 ± 0.624% | % methemoglobin formation, Control (human erythrocytes): 2.138 ± 0.624% | % methemoglobin formed, CYP 2C8 (CYP 2C8): 1.893 ± 0.275% | % methemoglobin formed, CYP 2C19 (CYP 2C19): 1.733 ± 0.327% | % methemoglobin formation, Pooled Human liver Microsomes ([1]; drug 100 μM, microsomes equivalent to 25 pmoles cytochrome P450, Mean ± S.D. of four): 12.510 ± 1.890% | formation of methemoglobenemic metabolites, Azithromycin ([1]; pooled human Liver Microsomes, 8-aminoquinoline with Azithromycin): 10.595 ± 0.842 | formation of methemoglobenemic metabolites, Erythromycin ([1]; pooled human Liver Microsomes, 8-aminoquinoline with Erythromycin): 6.720 ± 1.011 | formation of methemoglobenemic metabolites, Microsomes ([1]; pooled human Liver Microsomes, no macrolide): 12.860 ± 1.994 | % methemoglobin formed, CYP 2E1 (CYP 2E1): 8.703 ± 0.956%

COc1cc(NC(C)CCCN)c2ncccc2c1 (stereo not shown) [Primaquine, primaquine, reference compound]
formation of methemoglobenemic metabolites, Azithromycin (Mouse Liver Microsomes): 11.800 ± 2.862 | formation of methemoglobenemic metabolites, Erythromycin (Mouse Liver Microsomes): 23.770 ± 5.826 | formation of methemoglobenemic metabolites, Microsomes (Mouse Liver Microsomes): 36.660 ± 2.612 | % methemoglobin formation, Mouse Liver Microsomes (Mouse Liver Microsomes): 36.660 ± 2.612% | % methemoglobin formed, Supersomes None (human erythrocytes): 1.465 ± 0.183% | % methemoglobin formation, Control (human erythrocytes): 1.465 ± 0.414%

CO[C@H]1C[C@H](O[C@H]2[C@H](C)[C@@H](O[C@@H]3O[C@H](C)C[C@H](N(C)C)[C@H]3OC(C)=O)[C@@H](C)C[C@@]3(CO3)C(=O)[C@H](C)[C@@H](OC(C)=O)[C@@H](C)[C@@H](C)OC(=O)[C@@H]2C)O[C@@H](C)[C@@H]1OC(C)=O [Troleandomycin, troleandomycin, reference compound]
MST (Plasmodium berghei): 15 days | (%) Parasitemia (Plasmodium berghei; day 7 p.i.): 13.3/18.3/25.5/16.5/13.1 (17.3) % | (%) Parasitemia (Plasmodium berghei; day 10 p.i.): 22.7/34.5/32.0/32.1/24.3 (29.1) % | (%) Parasitemia (Plasmodium berghei; day 14 p.i.): 31.5/41.5/28.5/49.3/49.3 (40.0) % | deaths (Plasmodium berghei; number of deaths/day): 5/15
